The source of these data is patent US6416585B1, “Method for crystallizing polyols and sugars” (Vomm Chemipharma S.r.l., priority 1999, dated 2002).

This series is described as follows: solubility of the crystallized granular sorbitol compared with the prior art. The settings on record: sorbitol granules of Example 1 after two hours long maturation; in comparison with the prior art. It counts as physicochemical.

As for `OC[C@@H](O)[C@@H](O)[C@H](O)[C@@H](O)CO` [sorbitol granules, sorbitol], the solubility result is reported as “definitely improved”.
